According to US12173018B2, “Penicillin-binding protein inhibitors” (priority 2018, dated 2024):
In brackets after ≈: the same amount, converted by molar mass. Like-named read-outs stand apart in the source and are kept apart here.

What was measured:
N. gonorrhoeae WHO F = test: Liquid broth MIC, N. gonorrhoeae WHO F; format: cell-based; settings: Neisseria gonorrhoeae; N. gonorrhoeae WHO F, liquid broth; read-out: Minimum Inhibitory Concentration, N. gonorrhoeae WHO F
Outline: (§1)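 In liquid broth, wild-type reference gonococci at 5×10^5 CFU/mL faced twofold compound dilutions for 40-42 hours (36° C, 5% CO2). The MIC was the lowest concentration with no growth seen by eye.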

E. coli ATCC 25922 = test: Broth microdilution MIC, E. coli ATCC 25922; format: cell-based; settings: Escherichia coli
Outline: (§2)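 Visual MIC readout after 16-20 h at 37° C in CLSI-format microdilution. Compounds tested as 2-fold series against a 5×10^5 CFU/mL inoculum in cation-supplemented Mueller-Hinton broth.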

K. pneumoniae 848844 = test: microbe, parasite or virus in culture; format: cell-based, Klebsiella pneumoniae; settings: Klebsiella pneumoniae; K. pneumoniae 848844 producing SHV-11 and KPC-2; read-out: MIC K. pneumoniae 848844
Outline: as §2

[1] = test system: N. gonorrhoeae ATCC 49226; test: Liquid broth MIC, N. gonorrhoeae ATCC 49226; format: cell-based; settings: Neisseria gonorrhoeae, ATCC49226; N. gonorrhoeae ATCC 49226, liquid broth; read-out: Minimum Inhibitory Concentration, N. gonorrhoeae ATCC 49226
Outline: as §1

E. coli AG100 = test: Broth microdilution MIC, E. coli AG100 (wild-type parent); format: cell-based; settings: Escherichia coli; wild-type parent E. coli AG100, broth microdilution; read-out: MIC E. coli AG100
Outline: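 Starting inoculum of 5×10^5 CFU/mL, from colonies grown 3-5 h in Mueller-Hinton broth with divalent cations, added to two-fold compound dilution series.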

N. gonorrhoeae FA1090 = test: Liquid broth MIC, N. gonorrhoeae FA1090; format: cell-based; settings: Neisseria gonorrhoeae; N. gonorrhoeae FA1090, liquid broth; read-out: Minimum Inhibitory Concentration, N. gonorrhoeae FA1090
Outline: as §1

N. gonorrhoeae FA19 = test: Liquid broth MIC, N. gonorrhoeae FA19; format: cell-based; settings: Neisseria gonorrhoeae; N. gonorrhoeae FA19, liquid broth; read-out: Minimum Inhibitory Concentration, N. gonorrhoeae FA19
Outline: as §1

K. pneumoniae UMM = test: microbe, parasite or virus in culture; format: cell-based; settings: Klebsiella pneumoniae; K. pneumoniae UMM producing SHV-5 and KPC-2; read-out: MIC K. pneumoniae UMM
Outline: as §2

E. coli D22 = test: microbe, parasite or virus in culture; format: cell-based; settings: Escherichia coli; hyper-permeable E. coli D22, broth microdilution; read-out: MIC E. coli D22
Outline: as §2

E. coli 901C = test: microbe, parasite or virus in culture; format: cell-based; settings: Escherichia coli; hyper-permeable E. coli 901C, broth microdilution; read-out: MIC E. coli 901C
Outline: as §2

E. coli AG100A = test: microbe, parasite or virus in culture; format: cell-based; settings: Escherichia coli, read-out: MIC E. coli AG100A
Outline: as §2

K. pneumoniae SI-117 = test: microbe, parasite or virus in culture; format: cell-based; settings: Klebsiella pneumoniae, SI117, read-out: MIC K. pneumoniae SI-117
Outline: as §2

[2] = ATCC25922, E. coli ATCC 25922, broth microdilution, read-out: MIC E. coli 25922
[3] = ATCC25922, read-out: MIC E. coli 25922

| SMILES | MIC (N. gonorrhoeae WHO F) [µg/mL] | MIC (E. coli ATCC 25922; [2]) [µg/mL] | MIC (K. pneumoniae 848844) [µg/mL] | MIC [1] [µg/mL] | MIC (E. coli AG100) [µg/mL] | MIC (N. gonorrhoeae FA1090) [µg/mL] | MIC (N. gonorrhoeae FA19) [µg/mL] | MIC (K. pneumoniae UMM) [µg/mL] | MIC (E. coli D22) [µg/mL] | MIC (E. coli 901C) [µg/mL] | MIC (E. coli AG100A) [µg/mL] | MIC (K. pneumoniae SI-117) [µg/mL] | MIC (E. coli ATCC 25922; [3]) [µg/mL] |
| --- | --- | --- | --- | --- | --- | --- | --- | --- | --- | --- | --- | --- | --- |
| CCN1C[C@@H](C)N(C(=O)NC(C(=O)N[C@H]2Cc3cccc(C(=O)O)c3OB2O)c2ncc(O)cc2F)C(=O)C1=O (stereo partly drawn) [Example 191, (3R)-3-(2-((R)-4-ethyl-6-methyl-2,3-dioxopiperazine-1-carboxamido)-2-(3-fluoro-5-hydroxypyridin-2-yl)acetamido)-2-hydroxy-3,4-dihydro-2H-benzo[e][1,2]oxaborinine-8-carboxylic acid] | 1 to 2 (≈ 1.79 to 3.59 µM) | > 128 | > 128 | > 64 | > 128 | 0.25 to 0.5 (≈ 0.449 to 0.897 µM) | 16 to 32 (≈ 28.7 to 57.4 µM) | > 128 | 8 to 16 | 0.5 to 1 | 8 to 16 | > 128 | – |
| CCN1CCN(C(=O)NC(C(=O)N[C@H]2Cc3ccc(F)c(C(=O)O)c3OB2O)c2ccc(O)c(O)c2Cl)C(O)C1=O (stereo partly drawn) [Example 194, (3R)-3-(2-(2-chloro-3,4-dihydroxyphenyl)-2-(4-ethyl-2-hydroxy-3-oxopiperazine-1-carboxamido)acetamido)-7-fluoro-2-hydroxy-3,4-dihydro-2H-benzo[e][1,2]oxaborinine-8-carboxylic acid] | 4 to 8 (≈ 6.73 to 13.5 µM) | – | 8 to 16 | 16 to 32 (≈ 26.9 to 53.8 µM) | 8 to 16 | 4 to 8 (≈ 6.73 to 13.5 µM) | 4 to 8 (≈ 6.73 to 13.5 µM) | 8 to 16 | 8 to 16 | 8 to 16 | 8 to 16 | 8 to 16 | 32 to 64 |
| NS(=O)(=O)c1ccc(C(NC(=O)N2CCN(CCF)C(=O)C2=O)C(=O)N[C@H]2Cc3cccc(C(=O)O)c3OB2O)c(F)c1 (stereo partly drawn) [Example 204, (3R)-3-(2-(2-fluoro-4-sulfamoylphenyl)-2-(4-(2-fluoroethyl)-2,3-dioxopiperazine-1-carboxamido)acetamido)-2-hydroxy-3,4-dihydro-2H-benzo[e][1,2]oxaborinine-8-carboxylic acid] | 0.25 to 0.5 (≈ 0.401 to 0.802 µM) | 32 to 64 | > 128 | 1 to 2 (≈ 1.6 to 3.21 µM) | 32 to 64 | 0.25 to 0.5 (≈ 0.401 to 0.802 µM) | 1 to 2 (≈ 1.6 to 3.21 µM) | 32 to 64 | 2 to 4 | < 0.25 | 2 to 4 | > 128 | – |
| CCN1CCN(C(=O)NC(C(=O)N[C@H]2Cc3cccc(C(=O)O)c3OB2O)c2nc(N)sc2F)C(=O)C1=O (stereo partly drawn) [Example 205, (3R)-3-(2-(2-amino-5-fluorothiazol-4-yl)-2-(4-ethyl-2,3-dioxopiperazine-1-carboxamido)acetamido)-2-hydroxy-3,4-dihydro-2H-benzo[e][1,2]oxaborinine-8-carboxylic acid] | < 0.125 | 2 to 4 | 32 to 64 | < 0.125 | 8 to 16 | < 0.125 | < 0.125 | > 128 | 0.5 to 1 | < 0.25 | 0.5 to 1 | 32 to 64 | – |
| CCN1C[C@H](C)N(C(=O)NC(C(=O)N[C@H]2Cc3ccc(F)c(C(=O)O)c3OB2O)c2ccc(O)c(O)c2Cl)C(=O)C1=O (stereo partly drawn) [Example 206, (3R)-3-(2-(2-chloro-3,4-dihydroxyphenyl)-2-((S)-4-ethyl-6-methyl-2,3-dioxopiperazine-1-carboxamido)acetamido)-7-fluoro-2-hydroxy-3,4-dihydro-2H-benzo[e][1,2]oxaborinine-8-carboxylic acid] | 0.25 to 0.5 (≈ 0.412 to 0.824 µM) | 2 to 4 | 2 to 4 | 4 to 8 (≈ 6.59 to 13.2 µM) | 0.5 to 1 | 0.25 to 0.5 (≈ 0.412 to 0.824 µM) | 4 to 8 (≈ 6.59 to 13.2 µM) | 2 to 4 | 0.5 to 1 | < 0.25 | < 0.25 | 2 to 4 | – |
| CCN1C[C@H](C)N(C(=O)NC(C(=O)N[C@H]2Cc3ccc(F)c(C(=O)O)c3OB2O)c2ncc(O)cc2F)C(=O)C1=O (stereo partly drawn) [Example 208, (3R)-3-(2-((S)-4-ethyl-6-methyl-2,3-dioxopiperazine-1-carboxamido)-2-(3-fluoro-5-hydroxypyridin-2-yl)acetamido)-7-fluoro-2-hydroxy-3,4-dihydro-2H-benzo[e][1,2]oxaborinine-8-carboxylic acid] | < 0.125 | 8 to 16 | 32 to 64 | 4 to 8 (≈ 6.95 to 13.9 µM) | 8 to 16 | 0.25 to 0.5 (≈ 0.435 to 0.869 µM) | 4 to 8 (≈ 6.95 to 13.9 µM) | 8 to 16 | 2 to 4 | < 0.25 | 2 to 4 | 32 to 64 | – |
| CCN1CCN(C(=O)NC(C(=O)N[C@H]2Cc3cccc(C(=O)O)c3OB2O)c2ccc(S(N)(=O)=O)c(F)c2)C(=O)C1=O (stereo partly drawn) [Example 210, (3R)-3-(2-(4-ethyl-2,3-dioxopiperazine-1-carboxamido)-2-(3-fluoro-4-sulfamoylphenyl)acetamido)-2-hydroxy-3,4-dihydro-2H-benzo[e][1,2]oxaborinine-8-carboxylic acid] | < 0.125 | 8 to 16 | > 128 | 4 to 8 (≈ 6.61 to 13.2 µM) | 32 to 64 | < 0.125 | 1 to 2 (≈ 1.65 to 3.3 µM) | 32 to 64 | 2 to 4 | < 0.25 | 2 to 4 | > 128 | – |
| CCN1CCN(C(=O)NC(C(=O)N[C@H]2Cc3cccc(C(=O)O)c3OB2O)c2ccc(C(=O)O)cc2)C(=O)C1=O (stereo partly drawn) [Example 212, (3R)-3-(2-(4-carboxyphenyl)-2-(4-ethyl-2,3-dioxopiperazine-1-carboxamido)acetamido)-2-hydroxy-3,4-dihydro-2H-benzo[e][1,2]oxaborinine-8-carboxylic acid] | < 0.125 | – | > 128 | 0.25 to 0.5 (≈ 0.453 to 0.905 µM) | 32 to 64 | < 0.125 | 0.25 to 0.5 (≈ 0.453 to 0.905 µM) | 32 to 64 | 2 to 4 | < 0.25 | 8 to 16 | > 128 | 32 to 64 |
| O=C(O)c1cccc2c1OB(O)[C@@H](NC(=O)C(NC(=O)N1CCN(CCF)C(=O)C1=O)c1ccc(S(=O)(=O)NCCO)cc1)C2 (stereo partly drawn) [Example 213, (3R)-3-(2-(4-(2-fluoroethyl)-2,3-dioxopiperazine-1-carboxamido)-2-(4-(N-(2-hydroxyethyl)sulfamoyl)phenyl)acetamido)-2-hydroxy-3,4-dihydro-2H-benzo[e][1,2]oxaborinine-8-carboxylic acid] | 0.25 to 0.5 (≈ 0.385 to 0.77 µM) | > 128 | > 128 | 4 to 8 (≈ 6.16 to 12.3 µM) | 32 to 64 | 0.25 to 0.5 (≈ 0.385 to 0.77 µM) | 16 to 32 (≈ 24.6 to 49.3 µM) | 32 to 64 | 2 to 4 | 0.5 to 1 | 8 to 16 | > 128 | – |
| CCN1CCN(C(=O)NC(C(=O)N[C@H]2Cc3ccc(Cl)c(C(=O)O)c3OB2O)c2ncc(O)cc2F)C(=O)C1=O (stereo partly drawn) [Example 216, (3R)-7-chloro-3-(2-(4-ethyl-2,3-dioxopiperazine-1-carboxamido)-2-(3-fluoro-5-hydroxypyridin-2-yl)acetamido)-2-hydroxy-3,4-dihydro-2H-benzo[e][1,2]oxaborinine-8-carboxylic acid] | < 0.125 | 32 to 64 | 32 to 64 | 1 to 2 (≈ 1.73 to 3.46 µM) | 32 to 64 | 0.25 to 0.5 (≈ 0.433 to 0.865 µM) | 1 to 2 (≈ 1.73 to 3.46 µM) | 32 to 64 | 2 to 4 | 0.5 to 1 | 8 to 16 | 32 to 64 | – |
| CCN1CCN(C(=O)NC(C(=O)N[C@H]2Cc3ccc(Cl)c(C(=O)O)c3OB2O)c2ccc(O)c(O)c2Cl)C(=O)C1=O (stereo partly drawn) [Example 217, (3R)-7-chloro-3-(2-(2-chloro-3,4-dihydroxyphenyl)-2-(4-ethyl-2,3-dioxopiperazine-1-carboxamido)acetamido)-2-hydroxy-3,4-dihydro-2H-benzo[e][1,2]oxaborinine-8-carboxylic acid] | 0.25 to 0.5 (≈ 0.41 to 0.821 µM) | 8 to 16 | 2 to 4 | 16 to 32 (≈ 26.3 to 52.5 µM) | 2 to 4 | 1 to 2 (≈ 1.64 to 3.28 µM) | 4 to 8 (≈ 6.57 to 13.1 µM) | 2 to 4 | 2 to 4 | 2 to 4 | 2 to 4 | 2 to 4 | – |
